Assay results published in patent US6043252A, “Carboline derivatives” (Icos Corporation, priority 1998, dated 2000).
No end group written: not given here.

Columns and labels:
[1] = system: MED; details: clinical; oral, sublingual, intraurethral, i.c. or topical; cited from earlier work
[2] = system: PDE6; details: cited from earlier work
[3] = system: conscious spontaneously hypertensive rats (SHRs); assay: Hypotensive effect in conscious spontaneously hypertensive rats; type: in vivo, rat; details: 5 mg/kg orally in 5% DMF and 95% olive oil, AUC from 0 to 5 hours
Experimental: The hypotensive effects of compounds according to the invention as identified in Table 2 were studied in conscious spontaneously hypertensive rats (SHRs). The compounds were administered orally at a dose of 5 mg/kg in a mixture of 5% DMF and 95% olive oil. Blood pressure was measured from a catheter inserted in the carotid artery and recorded for five hours after administration. The results are expressed as Area Under the Curve (AUC from 0 to 5 hours, mmhg.hour) of the fall in blood pressure over time.

[4] = system: Rat aortic smooth muscle cells (RSMC); assay: cGMP level measurements in rat aortic smooth muscle cells stimulated with ANF; type: cell-based; details: compound 30 minutes at 37° C., then ANF (100 nM) 10 minutes, dose giving half of the stimulation at saturating concentrations
Experimental: Rat aortic smooth muscle cells (RSMC), prepared according to Chamley et al., Cell Tissue Res., 177, 503-522 (1977), were used between the 10th and 25th passage at confluence in 24-well culture dishes. Culture media was aspirated and replaced with PBS (0.5 ml) containing the compound tested at the appropriate concentration. After 30 minutes at 37° C., particulates guanylate cyclase was stimulated by addition of ANF (100 nM) for 10 minutes. At the end of incubation, the medium was withdrawn, and two extractions were performed by addition of 65% ethanol (0.25 ml). The two ethanolic extracts were pooled and evaporated until dryness, using a Speed-vac system. CGMP was measured after acetylation by scintillation proximity immunoassay (AMERSHAM). The EC50 values are expressed as the dose-giving half of the stimulation at saturating concentrations.

[5] = molecular target: human recombinant PDE5 (Homo sapiens, UniProt O76074); assay: Inhibitory effect on cGMP-PDE (one-step PDE5 assay); type: biochemical; details: 0.15 μM 8-[H^3 ]-cGMP, 2% DMSO, 30 minutes
Experimental: CGMP-PDE activity of compounds of the present invention was measured using a one-step assay adapted from Wells et al., Biochim. Biophys. Acta, 384, 430 (1975). The reaction medium contained 50 mM Tris-HCl, pH 7.5, 5 mM magnesium acetate, […] 51-Nucleotidase, 1 mM EGTA, and 0.15 μM 8-[H^3 ]-cGMP. The enzyme used was a human recombinant PDE5 (ICOS Corp., Bothell, Wash.).
Compounds of the invention were dissolved in DMSO finally present at 2% in the assay.

Molecule | EC50 [4] [nM] | SHR AUC PO (Area Under the Curve of the fall in blood pressure over time) [3] [mmHG · h] | other results
CCCc1nn(C)c2c(=O)[nH]c(-c3cc(S(=O)(=O)N4CCN(C)CC4)ccc3OCC)nc12 [sildenafil] | – | – | efficacy in MED [1]: has shown efficacy in oral administration clinical trials for MED; selectivity with respect to PDE6 [2]: little selectivity with respect to PDE6
O=C(/C=C/c1ccccc1)N1CCc2c([nH]c3ccccc23)C1c1ccc2c(c1)CCO2 (stereo not drawn) [Example 112, (E)-1-[1-(2,3-Dihydrobenzofuran-5-yl)-1,3,4,9-tetrahydro-β-carbolin-2-yl]-3-phenylpropene-1-one] | – | 71 | –
O=C(/C=C/c1ccc([N+](=O)[O-])cc1)N1CCc2c([nH]c3ccccc23)C1c1ccc2c(c1)OCO2 (stereo not drawn) [Example 26, (E)-1-[1-(3,4-Methylenedioxyphenyl)-1,3,4,9-tetrahydro-β-carbolin-2-yl]-3-(4-nitrophenyl)propene-1-one] | – | 102 | –
CN(C)CCOc1ccc(/C=C/C(=O)N2CCc3c([nH]c4ccccc34)[C@H]2c2ccc3c(c2)CCO3)cc1 [Example 140] | 100 | 105 | –
Cc1ccc(N(CC2=NCCN2)c2cccc(O)c2)cc1 [phentolamine] | – | – | efficacy in MED [1]: neither compound has demonstrated efficacy across a broad range of subjects
O=C(/C=C/c1ccc(OCCN2CCCC2)cc1)N1CCc2c([nH]c3ccccc23)C1c1ccc2c(c1)CCO2 (stereo not drawn) [Example 142] | 1500 | 74 | –
Nc1ccc(/C=C/C(=O)N2CCc3c([nH]c4ccccc34)C2c2ccc3c(c2)OCO3)cc1 (stereo not drawn) [Example 25, (E)-1-[1-(3,4-Methylenedioxyphenyl)-1,3,4,9-tetrahydro-β-carbolin-2-yl]-3-(4-aminophenyl)propene-1-one] | 300 | 72 | IC50 [5]: 72 nM
vasoactive intestinal polypeptide (VIP): vasoactive intestinal polypeptide (VIP) (HSDAVFTDNYTRLRKQMAVKKYLNSILN; ends and bridges not checked; UniProt P01282 125-152, looked up) | – | – | efficacy in MED [1]: active i.c.
CCN(C)CCOc1ccc(/C=C/C(=O)N2CCc3c([nH]c4ccccc34)[C@H]2c2ccc3c(c2)CCO3)cc1 [Example 175, (E)-(R)-1-[1-(2,3-Dihydrobenzofuran-5-yl)-1,3,4,9-tetrahydro-β-carbolin-2-yl]-3-(4-(2-(ethylmethylamino)ethoxy)phenyl)propene-1-one] | – | 52 | –
O=C(O)c1ccc(/C=C/C(=O)N2CCc3c([nH]c4ccccc34)C2c2ccc3c(c2)OCO3)cc1 (stereo not drawn) [Example 31, (E)-4-[3-Oxo-3-[1-(3,4-methylenedioxyphenyl)-1,3,4,9-tetrahydro-β-carbolin-2-yl]-propenyl]benzoic acid] | 1000 | 86 | IC50 [5]: 4 nM
CC(C)C(=O)Nc1ccc(/C=C/C(=O)N2CCc3c([nH]c4ccccc34)C2c2ccc3c(c2)OCO3)cc1 (stereo not drawn) [Example 55, (E)-N-[4-[3-Oxo-3-(1-(3,4-methylenedioxyphenyl)-1,3,4,9-tetrahydro-β-carbolin-2-yl)propenyl]phenyl]isobutyramide] | 400 | 97 | IC50 [5]: 40 nM
CN1CCc2cccc3c2[C@H]1Cc1ccc(O)c(O)c1-3 [apomorphine] | – | – | efficacy in MED [1]: neither compound has demonstrated efficacy across a broad range of subjects
CCCCC[C@H](O)/C=C/[C@H]1[C@H](O)CC(=O)[C@@H]1CCCCCCC(=O)O [alprostadil] | – | – | efficacy in MED [1]: not effective in all patients
COC(=O)c1ccc(/C=C/C(=O)N2CCc3c([nH]c4ccccc34)C2c2ccc3c(c2)OCO3)cc1 (stereo not drawn) [Example 28, (E)-4-[3-Oxo-3-[1-(3,4-methylenedioxyphenyl)-1,3,4,9-tetrahydro-β-carbolin-2-yl]-propenyl]benzoic Acid, Methyl Ester] | 300 | 114 | IC50 [5]: 55 nM
CC(=O)Nc1ccc(/C=C/C(=O)N2CCc3c([nH]c4ccccc34)C2c2ccc3c(c2)OCO3)cc1 (stereo not drawn) [Example 14, (E)-N-[4-[3-Oxo-3-(1-(3,4-methylenedioxyphenyl)-1,3,4,9-tetrahydro-β-carbolin-2-yl)propenyl]phenyl]acetamide] | 450 | 128 | IC50 [5]: 5 nM
CN(C)CCOc1ccc(/C=C/C(=O)N2CCc3c([nH]c4ccccc34)C2c2ccc3c(c2)OCO3)cc1 (stereo not drawn) [Example 61, (E)-1-[1-(3,4-Methylenedioxyphenyl)-1,3,4,9-tetrahydro-β-carbolin-2-yl]-3-[4-(2-dimethylaminoethoxy)phenyl]propene-1-one] | 1800 | 95 | IC50 [5]: 20 nM
CN(C)CCOc1ccc(/C=C/C(=O)N2CCc3c([nH]c4ccccc34)C2c2ccc3c(c2)CCO3)cc1 (stereo not drawn) [Example 122] | – | 76 | –

The next lines start with results.

EC50 [4] [nM] | Molecule | SHR AUC PO (Area Under the Curve of the fall in blood pressure over time) [3] [mmHG · h] | other results
< 1000 | CNCCOc1ccc(/C=C/C(=O)N2CCc3c([nH]c4ccccc34)[C@H]2c2ccc3c(c2)CCO3)cc1 [Example 191, (E)-(R)-1-[1-(2,3-Dihydrobenzofuran-5-yl)-1,3,4,9-tetrahydro-carbolin-2-yl]-3-[4-(2-methylaminoethoxy)phenyl]propene-1-one] | 84 | –
< 1000 | O=C(/C=C/c1ccc(OCCN2CCCCC2)cc1)N1CCc2c([nH]c3ccccc23)[C@H]1c1ccc2c(c1)CCO2 [Example 188, (E)-(R)-1-[1-(2,3-Dihydrobenzofuran-5-yl)-1,3,4,9-tetrahydro-β-carbolin-2-yl]-3-(4-(2-piperidin-1-ylethoxy)phenyl)propene-1-one] | 86 | –
3500 | CN(C)CCNc1ccc(/C=C/C(=O)N2CCc3c([nH]c4ccccc34)[C@H]2c2ccc3c(c2)CCO3)cc1 [Example 180] | – | –
< 1000 | CN1CCC[C@H]1COc1ccc(/C=C/C(=O)N2CCc3c([nH]c4ccccc34)[C@H]2c2ccc3c(c2)CCO3)cc1 [Example 156] | 57 | –
< 1000 | CN(C)C[C@@H](O)COc1ccc(/C=C/C(=O)N2CCc3c([nH]c4ccccc34)C2c2ccc3c(c2)CCO3)cc1 (stereo partly drawn) [Example 177, (E)-(R)-1-[1-(2,3-Dihydrobenzofuran-5-yl)-1,3,4,9-tetrahydro-β-carbolin-2-yl]-3-(4-(3-dimethylamino-2-hydroxypropoxy)phenyl)propene-1-one] | 100 | –
< 1000 | CC(COc1ccc(/C=C/C(=O)N2CCc3c([nH]c4ccccc34)[C@H]2c2ccc3c(c2)CCO3)cc1)N(C)C (stereo partly drawn) [Example 165] | – | –
2000 | NCCOc1ccc(/C=C/C(=O)N2CCc3c([nH]c4ccccc34)[C@H]2c2ccc3c(c2)CCO3)cc1 [Example 181, (E)-(R)-1-[1-(2,3-Dihydrobenzofuran-5-yl)-1,3,4,9-tetrahydro-β-carbolin-2-yl]-3-(4-(2-aminoethoxy)phenyl)propene-1-one] | 77 | –
1500 | CCN(CC)CCOc1ccc(/C=C/C(=O)N2CCc3c([nH]c4ccccc34)[C@H]2c2ccc3c(c2)CCO3)cc1 [Example 164] | – | –
2000 | CN1CCN(c2ccc(/C=C/C(=O)N3CCc4c([nH]c5ccccc45)[C@H]3c3ccc4c(c3)CCO4)cc2)CC1 [Example 183] | – | –
3000 | CNCc1ccc(/C=C/C(=O)N2CCc3c([nH]c4ccccc34)[C@H]2c2ccc3c(c2)CCO3)cc1 [Example 184] | – | –
< 1000 | O=C(/C=C/c1ccc(O)cc1)N1CCc2c([nH]c3ccccc23)[C@H]1c1ccc2c(c1)CCO2 [Example 182, (E)-(R)-1-[1-(2,3-Dihydrobenzofuran-5-yl)-1,3,4,9-tetrahydro-β-carbolin-2-yl]-3-(4-hydroxyphenyl)propene-1-one] | – | –
